Measured values published in patent publication US20220340547A1, “INDOLE DERIVATIVE-CONTAINING INHIBITOR, PREPARATION METHOD THEREFOR AND APPLICATION THEREOF” (Shanghi Hansoh Biosoh Biomedical Co., Ltd., priority 2019, published 2022).

Key:
[1] = molecular target: EGFR WT (Homo sapiens, UniProt P00533); assay: TR-FRET inhibition of kinase activity of wild type EGFR; assay type: biochemical
From the text: Determination of the Inhibitory Effect of the Compound of the Present Invention on the Kinase Activity of Wild Type EGFR
Experimental objective: The objective of this test example is to determine the inhibitory effect of the compound on the kinase activity of wild type EGFR.
(§1) Experimental process: The experiment applied the TR-FRET (time-resolved fluorescence resonance energy transfer) method to study the inhibitory effect of the compound on the kinase activity of wild type EGFR. The experiment was carried out in a 384-well plate. Experimental buffer (50 mM HEPES, 1 mM EGTA, 10 mM MgCl2, 2 mM DTT, 0.01% Tween-20) was formulated. The compound was diluted in gradient to different concentrations with the experimental buffer. 2 μL of the solution was added to each well of the 384-well plate. 4 μL of diluted EGFR kinase solution (0.001-0.5 nM) was added, and the plate was incubated at room temperature for 10 minutes. 4 μL of ULight-poly GT/ATP mixed solution was added, and the plate was incubated at room temperature for 30 to 60 minutes. 5 μL of EDTA stop solution and 5 μL of Eu-labeled antibody detection solution were added, and the plate was incubated at room temperature for 1 hour.
(§2) Experimental Data Processing Method:
(§3) The concentration and inhibition rate were fitted to a nonlinear regression curve by Graphpad Prism software to obtain the IC50 value.

[2] = molecular target: EGFR D770_N771insNPG (Homo sapiens, UniProt P00533, INS770NPG); assay: TR-FRET inhibition of kinase activity of EGFR exon 20 insertion mutation; assay type: biochemical
From the text: Determination of the Inhibitory Effect of the Compound of the Present Invention on the Kinase Activity of EGFR Exon 20 Insertion Mutation
Experimental objective: The objective of this test example is to determine the inhibitory effect of the compound on the kinase activity of EGFR exon 20 insertion mutation.
as §1, with “of EGFR exon 20 insertion mutation.” for “of wild type EGFR.”, “buffer. 2.5” for “buffer. 2”, “plate. 2.5” for “plate. 4”, “minutes. 5” for “minutes. 4”
as §2, §3

[3] = molecular target: Ba/F3 EGFR-D770-N771ins_SVD (Homo sapiens, UniProt P00533, DUP768-770, cells depend on it); assay: Proliferation of Ba/F3 EGFR mutant cell line (CellTiter-Glo); assay type: cell-based, mouse; settings: 72 h to 144 h, read-out: Ba/F3 EGFR-D770-N771ins_SVD IC50
Procedure: Determination of the Inhibitory Effect of the Compound of the Present Invention on the Proliferation of Ba/F3 EGFR Mutant Cell Line and A431 Cell Line
(§4) Experimental objective: The objective of this test example is to determine the inhibitory effect of the compound on the proliferation of Ba/F3 EGFR mutant cell line and A431 cell line
(§5) Experimental instruments: Microplate reader (BioTek Synergy H1), pipette (Eppendorf & Rainin).
Ba/F3 EGFR mutant cells were cultured, and harvested after reaching a suitable density. The cells were adjusted to an appropriate cell concentration with the complete medium. The cell suspension were spread on a 96-well plate (90 μL per well), and the plate was placed in a 37° C., 5% CO2 incubator overnight to let the cells adhere to the wall. Solutions of the compound at different concentrations were formulated with DMSO and culture medium. Solvent control was set. […] CellTiter-Glo solution was added and mixed well by shaking, and the plate was incubated in the dark for 10 minutes. The values were measured by BioTek Synergy H1 microplate reader.
as §2
(§6) The inhibition rate was calculated using the […] signal value. The concentration and inhibition rate were fitted to a nonlinear regression curve by Graphpad Prism software to obtain the IC50 value.

[4] = test system: A431 cell line; assay: Proliferation of A431 cell line (CellTiter-Glo); assay type: cell-based; settings: Homo sapiens, A-431, 72 h
Procedure: Test Example 3. Determination of the Inhibitory Effect of the Compound of the Present Invention on the Proliferation of Ba/F3 EGFR Mutant Cell Line and A431 Cell Line
as §4, §5
A431 cells were cultured, and harvested after reaching a suitable density. The cells were adjusted to an appropriate cell concentration with the complete medium. The cell suspension were spread on a 96-well plate (90 μL per well), and the plate was placed in a 37° C., 5% CO2 incubator overnight to let the cells adhere to the wall. Solutions of the compound at different concentrations were formulated with DMSO and culture medium. Solvent control was set. The solution of the compound was added to the 96-well plate ([…]), and the plate was incubated in the 37° C., 5% CO2 incubator for 72 h. CellTiter-Glo solution was added and mixed well by shaking, and the plate was incubated in the dark for 10 minutes. The values were measured by BioTek Synergy H1 microplate reader.
as §2, §6

Sequence of EGFR WT (P00533 25-1210): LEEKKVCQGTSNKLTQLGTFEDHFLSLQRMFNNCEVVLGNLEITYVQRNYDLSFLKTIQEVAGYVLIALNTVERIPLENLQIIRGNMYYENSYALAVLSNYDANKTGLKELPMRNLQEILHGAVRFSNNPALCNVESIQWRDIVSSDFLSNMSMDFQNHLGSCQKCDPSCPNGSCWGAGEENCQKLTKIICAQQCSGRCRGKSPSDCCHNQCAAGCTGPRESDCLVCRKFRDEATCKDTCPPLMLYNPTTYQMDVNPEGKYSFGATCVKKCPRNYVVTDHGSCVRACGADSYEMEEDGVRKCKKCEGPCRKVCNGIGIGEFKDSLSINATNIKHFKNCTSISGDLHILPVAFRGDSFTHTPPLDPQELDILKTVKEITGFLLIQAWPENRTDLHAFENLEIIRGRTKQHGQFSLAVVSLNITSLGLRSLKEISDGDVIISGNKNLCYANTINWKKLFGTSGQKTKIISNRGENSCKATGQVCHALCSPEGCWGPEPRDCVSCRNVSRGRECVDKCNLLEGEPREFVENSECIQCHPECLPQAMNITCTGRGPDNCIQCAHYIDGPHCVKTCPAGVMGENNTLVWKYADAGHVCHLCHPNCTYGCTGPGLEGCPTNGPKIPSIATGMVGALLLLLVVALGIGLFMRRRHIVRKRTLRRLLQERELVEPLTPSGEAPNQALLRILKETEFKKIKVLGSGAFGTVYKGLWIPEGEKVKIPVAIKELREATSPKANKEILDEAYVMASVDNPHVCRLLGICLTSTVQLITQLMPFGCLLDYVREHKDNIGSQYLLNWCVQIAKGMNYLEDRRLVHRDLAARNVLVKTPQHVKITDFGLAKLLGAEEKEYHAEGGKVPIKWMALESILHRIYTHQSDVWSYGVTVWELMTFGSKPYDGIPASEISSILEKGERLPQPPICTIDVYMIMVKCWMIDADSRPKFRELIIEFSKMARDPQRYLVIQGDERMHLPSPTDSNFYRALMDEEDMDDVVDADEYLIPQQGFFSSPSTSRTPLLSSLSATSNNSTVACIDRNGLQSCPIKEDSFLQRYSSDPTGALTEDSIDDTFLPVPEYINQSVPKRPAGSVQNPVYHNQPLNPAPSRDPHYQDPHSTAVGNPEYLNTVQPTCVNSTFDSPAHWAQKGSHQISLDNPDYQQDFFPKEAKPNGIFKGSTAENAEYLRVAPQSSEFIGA
Sequence of EGFR D770_N771insNPG (P00533 with tags, fused parts or gaps INS770NPG limits assumed): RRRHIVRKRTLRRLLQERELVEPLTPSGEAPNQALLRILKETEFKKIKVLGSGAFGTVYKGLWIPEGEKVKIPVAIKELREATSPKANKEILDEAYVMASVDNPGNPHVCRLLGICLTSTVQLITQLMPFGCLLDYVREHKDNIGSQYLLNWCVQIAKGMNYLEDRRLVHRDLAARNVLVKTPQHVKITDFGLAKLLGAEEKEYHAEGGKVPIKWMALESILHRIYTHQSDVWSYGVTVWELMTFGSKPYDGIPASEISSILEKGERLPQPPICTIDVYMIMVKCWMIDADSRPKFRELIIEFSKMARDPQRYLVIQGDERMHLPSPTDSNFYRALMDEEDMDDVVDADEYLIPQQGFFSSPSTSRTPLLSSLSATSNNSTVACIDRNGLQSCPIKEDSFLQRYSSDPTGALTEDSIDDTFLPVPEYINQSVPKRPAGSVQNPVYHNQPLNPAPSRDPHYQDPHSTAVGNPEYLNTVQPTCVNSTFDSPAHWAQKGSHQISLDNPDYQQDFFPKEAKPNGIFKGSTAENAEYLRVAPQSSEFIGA
Sequence of Ba/F3 EGFR-D770-N771ins_SVD (P00533 with tags, fused parts or gaps DUP768-770): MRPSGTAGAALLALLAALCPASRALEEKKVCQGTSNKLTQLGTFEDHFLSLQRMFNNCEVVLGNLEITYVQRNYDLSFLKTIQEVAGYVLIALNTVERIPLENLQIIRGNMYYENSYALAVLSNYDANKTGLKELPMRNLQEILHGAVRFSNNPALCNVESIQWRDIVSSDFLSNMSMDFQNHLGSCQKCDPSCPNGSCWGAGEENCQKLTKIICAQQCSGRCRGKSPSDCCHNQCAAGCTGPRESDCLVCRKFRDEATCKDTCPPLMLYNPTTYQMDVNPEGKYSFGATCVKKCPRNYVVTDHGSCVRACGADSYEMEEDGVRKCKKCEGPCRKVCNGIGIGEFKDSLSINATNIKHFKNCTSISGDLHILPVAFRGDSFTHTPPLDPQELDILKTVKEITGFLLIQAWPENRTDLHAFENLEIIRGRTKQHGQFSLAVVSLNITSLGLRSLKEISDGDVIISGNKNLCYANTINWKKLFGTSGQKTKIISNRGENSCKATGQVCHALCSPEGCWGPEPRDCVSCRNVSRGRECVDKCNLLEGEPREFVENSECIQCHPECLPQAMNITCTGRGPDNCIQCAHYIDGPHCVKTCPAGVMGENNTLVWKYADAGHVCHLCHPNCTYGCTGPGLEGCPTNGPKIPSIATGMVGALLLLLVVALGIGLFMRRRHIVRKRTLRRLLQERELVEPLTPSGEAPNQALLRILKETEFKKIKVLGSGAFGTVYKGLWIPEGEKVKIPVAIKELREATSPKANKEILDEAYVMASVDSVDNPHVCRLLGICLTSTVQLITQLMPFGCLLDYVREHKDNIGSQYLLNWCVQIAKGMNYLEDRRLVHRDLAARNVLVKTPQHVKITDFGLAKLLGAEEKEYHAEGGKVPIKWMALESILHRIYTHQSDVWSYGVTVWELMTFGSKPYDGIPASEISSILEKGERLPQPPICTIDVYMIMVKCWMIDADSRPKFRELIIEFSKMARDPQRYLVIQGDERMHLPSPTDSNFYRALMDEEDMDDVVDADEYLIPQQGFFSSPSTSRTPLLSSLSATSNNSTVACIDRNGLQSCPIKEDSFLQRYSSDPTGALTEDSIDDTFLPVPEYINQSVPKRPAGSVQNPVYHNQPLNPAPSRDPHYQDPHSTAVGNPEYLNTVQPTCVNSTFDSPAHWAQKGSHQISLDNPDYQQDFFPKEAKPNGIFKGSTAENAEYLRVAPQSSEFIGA

`C=CC(=O)Nc1cc(Nc2ncc(-c3cccs3)c(-c3cn(C4CC4)c4ccccc34)n2)c(OC)cc1N1C[C@H]2CN(C)C[C@H]2C1` [Example 46, N-(5-((4-(1-Cyclopropyl-1H-indol-3-yl)-5-(thiophen-2-yl)pyrimidin-2-yl)amino)-4-methoxy-2-((3aR,6aS)-5-methylhexahydropyrrolo[3,4-c]pyrrol-2(1H)-yl)phenyl)acrylamide] showed an IC50 [1] of 72.7 nM.
With `C=CC(=O)Nc1cc(Nc2ncc(C(F)(F)F)c(-c3cn(C4CC4)c4ccccc34)n2)c(OC)cc1N1C[C@H]2CN(C)C[C@H]2C1` [Example 27, N-(5-((4-(1-Cyclopropyl-1H-indol-3-yl)-5-(trifluoromethyl)pyrimidin-2-yl)amino)-4-methoxy-2-((3aR,6aS)-5-methylhexahydropyrrolo[3,4-c]pyrrol-2(1H)-yl)phenyl)acrylamide] the IC50 [1] was 121 nM.
Work on `C=CC(=O)Nc1cc(Nc2ncc(Br)c(-c3cn(C4CC4)c4ccccc34)n2)c(OC)cc1N1C[C@H]2CN(C)C[C@H]2C1` [Example 28, N-(5-((5-Bromo-4-(1-cyclopropyl-1H-indol-3-yl)pyrimidin-2-yl)amino)-4-methoxy-2-((3aR,6aS)-5-methylhexahydropyrrolo[3,4-c]pyrrol-2(1H)-yl)phenyl)acrylamide] yielded an IC50 [1] of 63.3 nM.
In the case of `C=CC(=O)Nc1cc(Nc2ncc(C(=O)NCc3ccc(F)cc3)c(-c3cn(C)c4ccccc34)n2)c(OC)cc1N(C)CCN(C)C` [Example 142, 2-((5-Acrylamido-4-((2-(dimethylamino)ethyl)(methyl)amino)-2-methoxyphenyl)amino)-N-(4-fluorobenzyl)-4-(1-methyl-1H-indol-3-yl)pyrimidine-5-carboxamide], the IC50 [1] is reported as 133 nM.
`C=CC(=O)Nc1cc(Nc2ncc(C(=O)OC)c(-c3cn(C)c4ccccc34)n2)c(OC)cc1N1C[C@@H]2C[C@H]1CN2C` [Example 25, Methyl 2-((5-acrylamido-2-methoxy-4-((1S,4S)-5-methyl-2,5-diazabicyclo[2.2.1]heptan-2-yl)phenyl)amino)-4-(1-methyl-1H-indol-3-yl)pyrimidine-5-carboxylate] gave an IC50 [1] of 89.8 nM.
`C=CC(=O)Nc1cc(Nc2ncc(N=S(C)(C)=O)c(-c3cn(C)c4ccccc34)n2)c(OC)cc1N(C)CCN(C)C` [Example 136, N-(5-((5-((Dimethyl(oxo)-λ^6-sulfaneylidene)amino)-4-(1-methyl-1H-indol-3-yl)pyrimidin-2-yl)amino)-2-((2-(dimethylamino)ethyl)(methyl)amino)-4-methoxyphenyl)acrylamide] showed an IC50 [1] of 250 nM.
With `C=CC(=O)Nc1cc(Nc2ncc(C#N)c(-c3cn(C4CC4)c4cccc(F)c34)n2)c(OC)cc1N(C)CCN(C)C` [Example 120, N-(5-((5-Cyano-4-(1-cyclopropyl-4-fluoro-1H-indol-3-yl)pyrimidin-2-yl)amino)-2-((2-(dimethylamino)ethyl)(methyl)amino)-4-methoxyphenyl)acrylamide] the IC50 [1] was > 1000 nM.
For `C=C(F)C(=O)Nc1cc(Nc2ncc(-c3ncco3)c(-c3cn(C4CC4)c4ccccc34)n2)c(OC)cc1N1CC(N(C)C)C1` [Example 66, N-(5-((4-(1-Cyclopropyl-1H-indol-3-yl)-5-(oxazol-2-yl)pyrimidin-2-yl)amino)-2-(3-(dimethylamino)azetidin-1-yl)-4-methoxyphenyl)-2-fluoroacrylamide], the IC50 [1] was 50.8 nM.
With `CC#CC(=O)Nc1cc(Nc2ncc(C(F)(F)F)c(-c3cn(C4CC4)c4ccccc34)n2)c(OC)cc1N1C[C@H]2CN(C)C[C@H]2C1` [Example 30, N-(5-((4-(1-Cyclopropyl-1H-indol-3-yl)-5-(trifluoromethyl)pyrimidin-2-yl)amino)-4-methoxy-2-((3aR,6aS)-5-methylhexahydropyrrolo[3,4-c]pyrrol-2(1H)-yl)phenyl)but-2-ynamide] the IC50 [1] was 453 nM.
`C=CC(=O)Nc1cc(Nc2ncc(C(=O)NC3CC3)c(-c3cn(C)c4ccccc34)n2)c(OC)cc1N1C[C@H]2CN(C)C[C@H]2C1` [Example 32, 2-((5-Acrylamido-2-methoxy-4-((3aR,6aS)-5-methylhexahydropyrrolo[3,4-c]pyrrol-2(1H)-yl)phenyl)amino)-N-cyclopropyl-4-(1-methyl-1H-indol-3-yl)pyrimidine-5-carboxamide] showed an IC50 [1] of 82.9 nM.
`C=CC(=O)Nc1cc(Nc2ncc(C#N)c(-n3nc(C)c4ccccc43)n2)c(OC)cc1N(C)CCN(C)C` [Example 138, N-(5-((5-Cyano-4-(3-methyl-1H-indazol-1-yl)pyrimidin-2-yl)amino)-2-((2-(dimethylamino)ethyl)(methyl)amino)-4-methoxyphenyl)acrylamide] was tested, and the IC50 [1] was > 1000 nM.
`C=CC(=O)Nc1cc(Nc2ncc(C(=O)NCc3ccccc3)c(-c3cn(C)c4ccccc34)n2)c(OC)cc1N(C)CCN(C)C` [Example 33, 2-((5-Acrylamido-4-((2-(dimethylamino)ethyl)(methyl)amino)-2-methoxyphenyl)amino)-N-benzyl-4-(1-methyl-1H-indol-3-yl)pyrimidine-5-carboxamide] was tested, and the IC50 [1] was 133 nM.
In the case of `C=CC(=O)Nc1cc(Nc2ncc(C(=O)N(C)C)c(-c3cn(C)c4ccccc34)n2)c(OC)cc1N1C[C@H]2CN(C)C[C@H]2C1` [Example 31, 2-((5-Acrylamido-2-methoxy-4-((3aR,6aS)-5-methylhexahydropyrrolo[3,4-c]pyrrol-2(1H)-yl)phenyl)amino)-N,N-dimethyl-4-(1-methyl-1H-indol-3-yl)pyrimidine-5-carboxamide], the IC50 [1] is reported as > 1000 nM.
`C=CC(=O)Nc1cc(Nc2ncc(-c3ncco3)c(-c3cn(C4CC4)c4ccccc34)n2)c(OC)cc1N(C)CC1CCCN1C` (stereo not shown) [Example 38, N-(5-((4-(1-Cyclopropyl-1H-indol-3-yl)-5-(oxazol-2-yl)pyrimidin-2-yl)amino)-4-methoxy-2-(methyl((1-methylpyrrolidin-2-yl)methyl)amino)phenyl)acrylamide] showed an IC50 [2] of 0.45 nM, a GI50 [3] of 34.6 nM and an IC50 [4] of 146 nM.
